# Assay results: patent US11840570B2, “Pharmaceutical combination and method for regulation of tumor microenvironment and immunotherapy” (Great Novel Therapeutics Biotech & Medicals Corporation, priority 2018, dated 2023)
# Test system: CT26 colon tumor
# Assay: Anti-cancer activity in CT26 tumor-bearing BALB/c mice
# Type: in vivo, mouse
# Settings: anti-PD-1 10 mg/kg, chidamide 50 mg/kg, metformin 100 mg/kg
# Procedure: Animal research was approved and overseen by The Taipei Medical University Institutional Animal Care and Use Committee (TMU IACUC). Six- to eight-wk-old male BALB/C mice (BioLASCO Taiwan) were used for all animal experiments. JC (1×10^7), or CT26 (5×10^6˜1×10^7) cancer cells were inoculated by s.c. into the right flank of each mouse. Tumors were allowed to grow for 11 d (tumor size about 200-300 mm^3) before randomization and treatment. CT26-bearing and JC-bearing mice were given 10 or 2.5 mg/kg of anti-IgG, anti-PD-1 and/or anti-PD-L1 and anti-CTLA-4 (2.5 mg/kg) antibodies i.p. on days 11, 14, 17, 20, 23, and 26 post-tumor implantation, and all antibodies were diluted to appropriate concentrations in 100 μL of sterile PBS (pH 7.4) (Invitrogen Life Technologies). Celecoxib, chidamide, metformin, mocetinostat, entinostat, aspirin, and ibuprofen treatments were administrated orally on day 11 post-tumor implantation. Daily treatment with celecoxib (12.5, 25.0, and 50 mg/kg) or metformin (100 or 200 mg/kg) was performed from days 11 to 26. Chidamide was administered to treat tumor bearing mice at doses of 6.25, 12.5, 25, and 50 mg/kg or as a single dose. Chidamide was orally administered daily from days 11 to 26. Entinostat was orally administered at a dose of 20 mg/kg every two days from days 11 to 25. Mocetinostat was orally administered at a dose of 30 mg/kg daily treatment from days 11 to 26. Aspirin and ibuprofen was orally administered at a dose of 50 mg/kg daily treatment from days 11 to 26. The anti-cancer activity was measured from the start of the treatment of tumor growth until the tumor volume reached 3,000 mm^3. Tumor volume was calculated as length×width^2×0.5.
# To understand the anti-cancer activity of anti-PD-1 antibody on the CT-26 colon cancer cell -bearing BALB/c mice, the anti-PD-1 antibody was administered into CT26-bearing mice at 10 mg/kg of anti-PD-1 and/or anti-IgG antibodies i.p. on days 11, 14, 17, 20, 23, and 26 of post tumor implantation. […] The response rate was evaluated by several assays.
structure (smiles),measurement,setting,value
CN(C)C(=N)N=C(N)N [metformin],tumor growth inhibition / anti-cancer activity,FIG. 2A/2B,markedly inhibited
same,mice with PD,"FIG. 2B, entinostat 20 mg/kg",five
same,mice with SD,"FIG. 2B, entinostat 20 mg/kg",one
